# Source: patent US9815846B2 (Merck Sharp & Dohme Corp., priority 2014, dated 2017)
# Target: human TrkA receptor (Homo sapiens (Human), UniProt P04629)
# Assay: DiscoverX PathHunter TrkA functional assay (NGF-stimulated U2OS cells)
# Type: cell-based
# Details: U2OS cells expressing human TrkA-PK, Shc1-EA and p75NTR; compound 1 h, then NGF at ~80% of maximal response for 3 h; luminescence
# Sequence of human TrkA receptor (P04629 33-796): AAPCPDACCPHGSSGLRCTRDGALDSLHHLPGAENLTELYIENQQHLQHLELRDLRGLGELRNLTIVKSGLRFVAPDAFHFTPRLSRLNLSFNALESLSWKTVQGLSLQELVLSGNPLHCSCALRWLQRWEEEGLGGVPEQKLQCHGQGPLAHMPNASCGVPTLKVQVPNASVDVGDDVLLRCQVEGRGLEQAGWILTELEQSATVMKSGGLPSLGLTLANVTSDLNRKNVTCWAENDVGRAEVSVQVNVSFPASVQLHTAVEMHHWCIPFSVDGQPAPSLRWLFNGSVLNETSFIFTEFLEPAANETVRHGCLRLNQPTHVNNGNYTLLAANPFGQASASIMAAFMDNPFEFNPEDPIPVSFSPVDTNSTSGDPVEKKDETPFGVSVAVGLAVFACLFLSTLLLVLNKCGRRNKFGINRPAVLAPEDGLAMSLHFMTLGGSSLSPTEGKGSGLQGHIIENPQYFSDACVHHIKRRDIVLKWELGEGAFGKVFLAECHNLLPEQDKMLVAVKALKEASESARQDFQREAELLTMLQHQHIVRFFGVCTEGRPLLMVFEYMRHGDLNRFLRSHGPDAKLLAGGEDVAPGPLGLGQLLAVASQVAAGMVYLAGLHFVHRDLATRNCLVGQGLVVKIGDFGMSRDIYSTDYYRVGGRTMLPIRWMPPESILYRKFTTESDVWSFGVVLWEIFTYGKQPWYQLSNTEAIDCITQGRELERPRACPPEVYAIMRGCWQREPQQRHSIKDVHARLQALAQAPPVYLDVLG
row,IC50 [nM],SMILES
1,4.6,"Cn1ccc(-c2cc(C(=O)Nc3ncc(CN4CCOC4=O)nc3-c3ccccc3)c(F)cc2C(F)(F)F)n1 [Example 214, 2-Fluoro-5-(1-methyl-1H-pyrazol-3-yl)-N-(5-((2-oxooxazolidin-3-yl)methyl)-3-phenylpyrazin-2-yl)-4-(trifluoromethyl)benzamide]"
2,3,"Cn1ccc(-c2cc(C(=O)Nc3cnc(CC(=O)N4CCNCC4)nc3-c3ccccc3)c(F)cc2C(F)(F)F)n1 [Example 114, 2-fluoro-5-(1-methyl-1H-pyrazol-3-yl)-N-(2-(2-oxo-2-(piperazin-1-yl)ethyl)-4-phenylpyrimidin-5-yl)-4-(trifluoromethyl)benzamide]"
3,6.8,"Cn1ccc(-c2cc(C(=O)Nc3cc4c(nc3-c3ccccc3)CC(=O)NC4)c(F)cc2C(F)(F)F)n1 [Example 153, 2-fluoro-5-(1-methyl-1H-pyrazol-3-yl)-N-(7-oxo-2-phenyl-5,6,7,8-tetrahydro-1,6-naphthyridin-3-yl)-4-(trifluoromethyl)benzamide]"
4,13,"O=C(Nc1cc2c(nc1-c1ccccc1)CCNC2)c1cc(-c2ccccn2)c(C(F)(F)F)cc1F [Example 146, 2-fluoro-N-(2-phenyl-5,6,7,8-tetrahydro-1,6-naphthyridin-3-yl)-5-(pyridin-2-yl)-4-(trifluoromethyl)benzamide]"
5,6,"NC(=O)Cc1cc(-c2ccccc2)c(NC(=O)c2cc(-c3ccccn3)c(C(F)(F)F)cc2F)cn1 [Example 127, N-(6-(2-amino-2-oxoethyl)-4-phenylpyridin-3-yl)-2-fluoro-5-(pyridin-2-yl)-4-(trifluoromethyl)benzamide]"
6,6.3,"O=C(Nc1cc(OCc2ccncc2)cnc1-c1ccccc1)c1cc(-c2ncccn2)c(C(F)(F)F)cc1F [Example 176, 2-fluoro-N-(2-phenyl-5-(pyridin-4-ylmethoxy)pyridin-3-yl)-5-(pyrimidin-2-yl)-4-(trifluoromethyl)benzamide]"
7,4.6,"CC(=O)Nc1cccc(-c2nc(C)ncc2NC(=O)c2cc(-c3ccn(C)n3)c(C(F)(F)F)cc2F)c1 [Example 133, N-(4-(3-acetamidophenyl)-2-methylpyrimidin-5-yl)-2-fluoro-5-(1-methyl-1H-pyrazol-3-yl)-4-(trifluoromethyl)benzamide]"
8,8.4,"Cn1ccc(-c2cc(C(=O)Nc3nc(CC(N)=O)ccc3-c3ccccc3)c(F)cc2C(F)(F)F)n1 [Example 205, N-(6-(2-Amino-2-oxoethyl)-3-phenylpyridin-2-yl)-2-fluoro-5-(1-methyl-1H-pyrazol-3-yl)-4-(trifluoromethyl)benzamide]"
9,1,"Cn1ccc(-c2cc(C(=O)Nc3cc4c(nc3-c3ccccc3)CCN(C(=O)CN)C4)ccc2C(F)(F)F)n1 [Example 156, N-(6-glycyl-2-phenyl-5,6,7,8-tetrahydro-1,6-naphthyridin-3-yl)-3-(1-methyl-1H-pyrazol-3-yl)-4-(trifluoromethyl)benzamide]"
10,0.19,"Cn1ccc(-c2cc(C(=O)Nc3ccc(C4COC(=O)N4)nc3-c3ccccc3)c(F)cc2C(F)(F)F)n1 (single isomer, unassigned) [Example 196, (R or S)-2-Fluoro-5-(1-methyl-1H-pyrazol-3-yl)-N-(6-(2-oxooxazolidin-4-yl)-2-phenylpyridin-3-yl)-4-(trifluoromethyl)benzamide]"
11,2.5,"Cn1ccc(-c2cc(C(=O)Nc3cnc(NCCO)nc3-c3ccccc3)ccc2C(F)(F)F)n1 [Example 210, N-(2-((2-hydroxyethyl)amino)-4-phenylpyrimidin-5-yl)-3-(1-methyl-1H-pyrazol-3-yl)-4-(trifluoromethyl)benzamide]"
12,4.6,"Cn1ccc(-c2cc(C(=O)Nc3cnc(C(N)C(N)=O)nc3-c3ccccc3)c(F)cc2C(F)(F)F)n1 (centres unmarked) [Example 130, N-(2-(1,2-Diamino-2-oxoethyl)-4-phenylpyrimidin-5-yl)-2-fluoro-5-(1-methyl-1H-pyrazol-3-yl)-4-(trifluoromethyl)benzamide]"
13,17,"NC(=O)Cc1ncc(NC(=O)c2cc(-c3cc[nH]n3)c(C(F)(F)F)cc2F)c(-c2ccccc2)n1 [Example 126, N-(2-(2-amino-2-oxoethyl)-4-phenylpyrimidin-5-yl)-2-fluoro-5-(1H-pyrazol-3-yl)-4-(trifluoromethyl)benzamide]"
14,23,"Cn1ccc(-c2cc(C(=O)Nc3cc4c(nc3-c3ccccc3)CCN(CC(=O)O)C4)ccc2C(F)(F)F)n1 [Example 157, 2-(3-(3-(1-methyl-1H-pyrazol-3-yl)-4-(trifluoromethyl)benzamido)-2-phenyl-7,8-dihydro-1,6-naphthyridin-6(5H)-yl)acetic acid]"
15,2.9,"Cn1ccc(-c2cc(C(=O)Nc3cc4c(nc3-c3ccccc3)CNC4)c(F)cc2C(F)(F)F)n1 [Example 188, 2-Fluoro-5-(1-methyl-1H-pyrazol-3-yl)-N-(2-phenyl-6,7-dihydro-5H-pyrrolo[3,4-b]pyridin-3-yl)-4-(trifluoromethyl)benzamide]"

# Continued, compound first:
row,SMILES,IC50 [nM]
1,"Cn1ccc(-c2cc(C(=O)Nc3cnc(CN)nc3-c3ccccc3)ccc2C(F)(F)F)n1 [Example 42, N-(2-(Aminomethyl)-4-phenylpyrimidin-5-yl)-3-(1-methyl-1H-pyrazol-3-yl)-4-(trifluoromethyl)benzamide]",21
2,"Cn1ccc(-c2cc(C(=O)Nc3cnc(CN4C(=O)COC4=O)nc3-c3ccccc3)c(F)cc2C(F)(F)F)n1 [Example 97, N-(2-((2,4-dioxooxazolidin-3-yl)methyl)-4-phenylpyrimidin-5-yl)-2-fluoro-5-(1-methyl-1H-pyrazol-3-yl)-4-(trifluoromethyl)benzamide]",0.25
3,C[C@H](O)C(=O)NCc1ncc(NC(=O)c2cc(-c3ccn(C)n3)c(C(F)(F)F)cc2F)c(-c2ccccc2)n1 [Example 48],1.1
4,"Cn1ccc(-c2cc(C(=O)Nc3ccc(CC(N)=O)nc3-c3ccccc3)c(F)cc2C(F)(F)F)n1 [Example 102, N-(6-(2-Amino-2-oxoethyl)-2-phenylpyridin-3-yl)-2-fluoro-5-(1-methyl-1H-pyrazol-3-yl)-4-(trifluoromethyl)benzamide]",0.79
5,"Cc1cccc(-c2nc(C)ncc2NC(=O)c2ccc(C(F)(F)F)c(-c3ccn(C)n3)c2)c1 [Example 32, N-[2-methyl-4-(3-methylphenyl)pyrimidin-5-yl]-3-(1-methyl-1H-pyrazol-3-yl)-4-(trifluoromethyl)benzamide]",8.3
6,"CN(C)C(=O)Cc1ncc(NC(=O)c2cc(-c3ccn(C)n3)c(C(F)(F)F)cc2F)c(-c2ccccc2)n1 [Example 100, N-(2-(2-(Dimethylamino)-2-oxoethyl)-4-phenylpyrimidin-5-yl)-2-fluoro-5-(1-methyl-1H-pyrazol-3-yl)-4-(trifluoromethyl)benzamide]",1.2
7,"Cn1ccc(-c2cc(C(=O)Nc3cc(C(=O)O)cnc3-c3ccccc3)c(F)cc2C(F)(F)F)n1 [Example 81, 5-(2-Fluoro-5-(1-methyl-1H-pyrazol-3-yl)-4-(trifluoromethyl)benzamido)-6-phenylnicotinic acid]",14
8,"Cn1ccc(-c2cc(C(=O)Nc3cnc(CO)nc3-c3ccccc3)ccc2C(F)(F)F)n1 [Example 35, N-(2-(Hydroxymethyl)-4-phenylpyrimidin-5-yl)-3-(1-methyl-1H-pyrazol-3-yl)-4-(trifluoromethyl)benzamide]",7.3
9,"Cn1ccc(-c2cc(C(=O)Nc3cnc(COC(N)=O)nc3-c3ccccc3)c(F)cc2C(F)(F)F)n1 [Example 80, (5-(2-Fluoro-5-(1-methyl-1H-pyrazol-3-yl)-4-(trifluoromethyl)benzamido)-4-phenylpyrimidin-2-yl)methyl carbamate]",0.49
10,"Cn1ccc(-c2cc(C(=O)Nc3cnc(CC(=O)NCCO)nc3-c3ccccc3)c(F)cc2C(F)(F)F)n1 [Example 108, 2-fluoro-N-(2-(2-((2-hydroxyethyl)amino)-2-oxoethyl)-4-phenylpyrimidin-5-yl)-5-(1-methyl-1H-pyrazol-3-yl)-4-(trifluoromethyl)benzamide]",1.5
11,"C[C@@H](N)C(=O)NCc1ncc(NC(=O)c2cc(-c3ccn(C)n3)c(C(F)(F)F)cc2F)c(-c2ccccc2)n1 [Example 73, (R)-N-(2-((2-aminopropanamido)methyl)-4-phenylpyrimidin-5-yl)-2-fluoro-5-(1-methyl-1H-pyrazol-3-yl)-4-(trifluoromethyl)benzamide]",1
12,"NC(=O)c1cnc(-c2ccccc2)c(NC(=O)c2cc(-c3ncccn3)c(C(F)(F)F)cc2F)c1 [Example 91, 5-(2-fluoro-5-(pyrimidin-2-yl)-4-(trifluoromethyl)benzamido)-6-phenylnicotinamide]",11
13,"Cn1ccc(-c2cc(C(=O)Nc3cnc(CNC(=O)C4CC4)nc3-c3ccccc3)ccc2C(F)(F)F)n1 [Example 51, N-(2-(cyclopropanecarboxamidomethyl)-4-phenylpyrimidin-5-yl)-3-(1-methyl-1H-pyrazol-3-yl)-4-(trifluoromethyl)benzamide]",4.9
14,"Cc1cc(-c2ccccc2)c(NC(=O)c2ccc(C(F)(F)F)c(-c3cc[nH]n3)c2)cn1 [Example 5, N-(6-Methyl-4-phenylpyridin-3-yl)-3-(1H-pyrazol-5-yl)-4-(trifluoromethyl)benzamide]",14
15,"C[C@@H](O)C(=O)NCc1ncc(NC(=O)c2cc(-c3ccn(C)n3)c(C(F)(F)F)cc2F)c(-c2ccccc2)n1 [Example 60, (R)-2-fluoro-N-(2-((2-hydroxypropanamido)methyl)-4-phenylpyrimidin-5-yl)-5-(1-methyl-1H-pyrazol-3-yl)-4-(trifluoromethyl)benzamide]",1.1
16,Cn1ccc(-c2cc(C(=O)Nc3cnc(CNC(=O)Cn4cncn4)nc3-c3ccccc3)c(F)cc2C(F)(F)F)n1 [Example 68],0.4
17,"CN1CC(=O)N(Cc2ncc(NC(=O)c3cc(-c4ccn(C)n4)c(C(F)(F)F)cc3F)c(-c3ccccc3)n2)C1=O [Example 95, 2-Fluoro-5-(1-methyl-1H-pyrazol-3-yl)-N-(2-((3-methyl-2,5-dioxoimidazolidin-1-yl)methyl)-4-phenylpyrimidin-5-yl)-4-(trifluoromethyl)benzamide]",0.11
